Like-named read-outs stand apart in the source and are kept apart here.
Experiments:
[1] = biological target: mutant cKIT (560-576 and V654A) in GIST430/654 cell line (Homo sapiens (Human), UniProt P10721, DEL560-576/V654A); test: Cellular testing of cKIT mutant inhibitors: phospho-Y307-cKIT Luminex assay in GIST430/654 cells; type: cell-based; conditions: read-out: GIST 430/654 IC50
Experimental: Assay Principle for Cellular Testing of cKIT Mutant Inhibitors
The GIST430/654 cell line expressing mutated constitutively active cKIT receptor tyrosine kinase ([…]560-576 and V654A) was employed for assessing cellular potency of compounds. Cellular activity of mutant cKIT was determined by the degree of cKIT autophosphorylation at tyrosine 307 using a Luminex-based bead assay. GIST430/654 cells were plated with 25,000 cells per well of a 96-well plate in 100 μl medium (85% IMDM/15% FCS supplemented with 100 nM Imatinib). At the following day compounds were added in a serial dilution for 45 min. Then, cells were lysed with 90 μl lysis buffer (20 mM Hepes pH 7.5, 200 mM NaCl, 1.5 mM MgCl2×6H2O, 0.4 mM EDTA, 1% Triton-X-100, 1% Phosphatase-Inhibitor II, 20 mM D-Glycerolphosphat, 0.1% Protease-Inhibitor Cocktail III, 0.01% Benzonase) und lysates were cleared by centrifugation through a 96-well filter plate (0.65 μm). Samples were incubated with Luminex-beads which were coupled with an anti-total cKIT antibody overnight at 4° C. under gentle agitation. For detection of phospho-Y307-cKIT a phosphospecific antibody and a species-specific PE-labelled secondary antibody were added. The amount of phospho-Y307-cKIT was determined in a Luminex 200 instrument measuring 100 events per well within 60 seconds.
Counts from samples treated with compounds were calculated as percent of control from solvent treated (0.3% DMSO) samples. Dose-response curves were fitted and IC50 values were determined using Genedata Screener software.

c-Kit(V654A) = c-Kit(V654A) (Homo sapiens, UniProt P10721, V654A); test: c-Kit(V654A) assay; type: biochemical
Experimental: c-Kit(V654A) (N-terminal GST-tagged, recombinant human c-Kit, amino acids 544-end containing the V654A mutation) is incubated with 8 mM MOPS pH 7.0, 0.2 mM EDTA, 250 μM GGMEDIYEFMGGKKK, 10 mM MgAcetate and [gamma-33P-ATP](specific activity approx. 500 cpm/pmol, concentration 200 μM). The reaction is initiated by the addition of the MgATP mix. After incubation for 40 minutes at room temperature, the reaction is stopped by the addition of 3% phosphoric acid solution. 10 μL of the reaction is then spotted onto a P30 filtermat and washed three times for 5 minutes in 75 mM phosphoric acid and once in methanol prior to drying and scintillation counting.

[2] = Table 1, cKIT autophosphorylation, compounds 45 min
[3] = Table 2, corresponding triazole derivatives

Sequence of mutant cKIT (560-576 and V654A) in GIST430/654 cell line (P10721 other isoform, or with tags, fused parts or gaps V654A/del 1-25/del 560-576 limits assumed): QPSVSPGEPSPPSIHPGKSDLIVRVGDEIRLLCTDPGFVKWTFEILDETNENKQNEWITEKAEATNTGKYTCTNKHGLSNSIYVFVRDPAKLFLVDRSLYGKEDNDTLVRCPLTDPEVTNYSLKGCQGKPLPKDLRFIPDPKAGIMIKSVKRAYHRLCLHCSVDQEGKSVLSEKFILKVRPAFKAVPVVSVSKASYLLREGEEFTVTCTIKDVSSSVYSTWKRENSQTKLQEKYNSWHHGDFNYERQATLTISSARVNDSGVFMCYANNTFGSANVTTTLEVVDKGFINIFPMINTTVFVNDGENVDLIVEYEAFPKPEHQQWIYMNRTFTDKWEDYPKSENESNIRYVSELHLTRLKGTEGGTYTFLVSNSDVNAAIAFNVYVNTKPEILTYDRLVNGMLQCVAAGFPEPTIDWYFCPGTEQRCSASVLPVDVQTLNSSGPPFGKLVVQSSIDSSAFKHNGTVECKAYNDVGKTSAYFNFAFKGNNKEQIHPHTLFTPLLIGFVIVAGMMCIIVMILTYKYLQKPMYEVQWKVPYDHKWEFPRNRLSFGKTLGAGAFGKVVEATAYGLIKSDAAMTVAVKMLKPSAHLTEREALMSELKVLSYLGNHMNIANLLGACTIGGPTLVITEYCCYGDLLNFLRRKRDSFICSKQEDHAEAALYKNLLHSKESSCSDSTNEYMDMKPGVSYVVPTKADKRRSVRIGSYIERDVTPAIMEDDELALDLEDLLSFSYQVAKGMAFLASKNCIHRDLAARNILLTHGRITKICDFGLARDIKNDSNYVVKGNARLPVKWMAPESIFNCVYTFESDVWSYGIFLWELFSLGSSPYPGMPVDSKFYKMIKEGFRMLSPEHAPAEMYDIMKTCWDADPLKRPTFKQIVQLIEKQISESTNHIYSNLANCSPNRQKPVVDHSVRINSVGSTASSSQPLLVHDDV

Structure (SMILES) | IC50 [1, 2] [nM] | IC50 (c-Kit(V654A); Table 1, 200 μM ATP) [nM] | IC50 [1, 3] [nM] | IC50 (c-Kit(V654A); [3]) [nM]
COCCOc1cc2[nH]nc(-c3cc(-c4ccc(C(=O)N5CCOC[C@@H]5CO)cc4)no3)c2cc1F [A106, [(3S)-4-(4-{5-[5-fluoro-6-(2-methoxyethoxy)-1H-indazol-3-yl]-1,2-oxazol-3-yl}benzoyl)morpholin-3-yl]methanol] | 77 | 0.7 | – | –
COCCOc1cc2[nH]nc(-c3cc(-c4ccc(C(=O)N5CC[C@@H]6COC[C@@H]6C5)cc4)no3)c2cc1F (relative stereo) [A215, 3-(3-{4-[(cis)-octahydrofuro[3,4-c]pyridine-5-carbonyl]phenyl}-1,2-oxazol-5-yl)-5-fluoro-6-(2-methoxyethoxy)-1H-indazole] | 35 | 0.76 | – | –
COCCOc1cc2[nH]nc(-c3cc(-c4ccc(C5CCNCC5(C)C)cc4)no3)c2cc1F (centres unmarked) [A230, 3-{3-[4-(3,3-dimethyl-piperidin-4-yl)-phenyl]-isoxazol-5-yl}-5-fluoro-6-(2-methoxy-ethoxy)-1H-indazole] | 110 | 0.4 | – | –
COCCOc1cc2[nH]nc(-c3cc(-c4ccc(C(=O)N5CC(N6CCOCC6=O)C5)cc4)no3)c2cc1F [A204, 4-[1-(4-{5-[5-fluoro-6-(2-methoxyethoxy)-1H-indazol-3-yl]-1,2-oxazol-3-yl}benzoyl)azetidin-3-yl]morpholin-3-one] | 61 | 0.88 | – | –
COCCOc1cc2[nH]nc(-c3cc(-c4ccc(C(=O)N5CCOC[C@H]5CO)cc4)no3)c2cc1Cl [A67, (4-{5-[5-chloro-6-(2-methoxy-ethoxy)-1H-indazol-3-yl]-isoxazol-3-yl}-phenyl)-((R)-3-hydroxymethyl-morpholin-4-yl)-methanone] | 94 | 0.88 | – | –
COCCOc1cc2[nH]nc(-c3cc(-c4ccc(C(=O)N5CC6(CN(C)C6)C5)cc4)no3)c2cc1F [A88, 5-fluoro-6-(2-methoxyethoxy)-3-[3-(4-{6-methyl-2,6-diazaspiro[3.3]heptane-2-carbonyl}phenyl)-1,2-oxazol-5-yl]-1H-indazole] | 170 | 2.3 | – | –
COCCOc1cc2[nH]nc(-c3cc(-c4ccc(C(=O)N5CCC56COC6)cc4)no3)c2cc1F [A112, 5-fluoro-6-(2-methoxyethoxy)-3-[3-(4-{6-oxa-1-azaspiro[3.3]heptane-1-carbonyl}phenyl)-1,2-oxazol-5-yl]-1H-indazole] | 32 | 1.3 | – | –
COCCOc1cc2[nH]nc(-c3cc(-c4ccc(C(=O)N5CC(C)(O)C5)cc4)no3)c2cc1F [A34, 1-(4-{5-[5-fluoro-6-(2-methoxyethoxy)-1H-indazol-3-yl]-1,2-oxazol-3-yl}benzoyl)-3-methylazetidin-3-ol] | 120 | 0.83 | – | –
COCCOc1cc2[nH]nc(-c3cc(-c4ccc(C(=O)N5CCN(C6COC6)CC5)cc4)no3)c2cc1F [A45, (4-{5-[5-fluoro-6-(2-methoxy-ethoxy)-1H-indazol-3-yl]-isoxazol-3-yl}-phenyl)-(4-oxetan-3-yl-piperazin-1-yl)-methanone] | 59 | 1.2 | – | –
COCCOc1cc2[nH]nc(-c3cc(-c4ccc(C(=O)N5CCC56COC6)c(F)c4)no3)c2cc1F [A170, (2-fluoro-4-{5-[5-fluoro-6-(2-methoxy-ethoxy)-1H-indazol-3-yl]-isoxazol-3-yl}-phenyl)-(6-oxa-1-aza-spiro[3.3]hept-1-yl)-methanone] | 120 | 2.6 | – | –
CNCC1CCCN1C(=O)c1ccc(-c2cc(-c3n[nH]c4cc(OCCOC)c(F)cc34)on2)cc1 (centres unmarked) [A222, {[1-(4-{5-[5-fluoro-6-(2-methoxyethoxy)-1H-indazol-3-yl]-1,2-oxazol-3-yl}benzoyl)pyrrolidin-2-yl]methyl}(methyl)amine] | 110 | 0.52 | – | –
COCCOc1cc2[nH]nc(-c3cc(-c4ccc(C(=O)N5CCC[C@H]5C(C)(C)O)nc4)no3)c2cc1F [A107, 2-[(2S)-1-(5-{5-[5-fluoro-6-(2-methoxyethoxy)-1H-indazol-3-yl]-1,2-oxazol-3-yl}pyridine-2-carbonyl)pyrrolidin-2-yl]propan-2-ol] | 53 | 5.6 | – | –
COCCOc1cc2[nH]nc(-c3cn(-c4ccc(C(=O)N5CCN(C6COC6)CC5)cc4)nn3)c2cc1F [reference compound] | – | – | 790 | 7.8
COCCOc1cc2[nH]nc(-c3cc(-c4ccc(C(=O)N5CCN(C6COC6)CC5)c(C)c4)no3)c2cc1F [A193, (4-{5-[5-fluoro-6-(2-methoxy-ethoxy)-1H-indazol-3-yl]-isoxazol-3-yl}-2-methyl-phenyl)-(4-oxetan-3-yl-piperazin-1-yl)-methanone] | 73 | 2.5 | – | –
COCCOc1cc2[nH]nc(-c3cc(-c4cccc(C(=O)N(C)C)c4)no3)c2cc1F [A135, 3-{5-[5-fluoro-6-(2-methoxy-ethoxy)-1H-indazol-3-yl]-isoxazol-3-yl}-N,N-dimethyl-benzamide] | 340 | 4.9 | – | –
COCCOc1cc2[nH]nc(-c3cc(-c4ccc(C(=O)N5CC[C@@H]5CS(C)(=O)=O)cc4)no3)c2cc1F [A154, 5-fluoro-3-(3-{4-[(2R)-2-(methanesulfonylmethyl)azetidine-1-carbonyl]phenyl}-1,2-oxazol-5-yl)-6-(2-methoxyethoxy)-1H-indazole] | 110 | 0.89 | – | –
COCCOc1cc2[nH]nc(-c3cc(-c4ncc(C(=O)N5CC(F)C5)s4)no3)c2cc1F [A86, 5-fluoro-3-{3-[5-(3-fluoroazetidine-1-carbonyl)-1,3-thiazol-2-yl]-1,2-oxazol-5-yl}-6-(2-methoxyethoxy)-1H-indazole] | – | 69 | – | –
COCCOc1cc2[nH]nc(-c3cc(-c4cncs4)no3)c2cc1F [A48, 5-fluoro-6-(2-methoxyethoxy)-3-[3-(1,3-thiazol-5-yl)-1,2-oxazol-5-yl]-1H-indazole] | – | 13 | – | –
COCCOc1cc2[nH]nc(-c3cc(-c4ccc(OC)nc4)no3)c2cc1F [A130, 5-fluoro-6-(2-methoxy-ethoxy)-3-[3-(6-methoxy-pyridin-3-yl)-isoxazol-5-yl]-1H-indazole] | – | 27 | – | –
COCCOc1cc2[nH]nc(-c3cn(-c4ccc(C(=O)N(C)C)cc4)nn3)c2cc1F [reference compound] | – | – | – | 11
CNC(=O)c1ccc2c(-c3cc(-c4ccc(C(=O)N(C)C)cc4)no3)n[nH]c2c1 [A24, 3-[3-(4-dimethylcarbamoyl-phenyl)-isoxazol-5-yl]-1H-indazole-6-carboxylic acid methylamide] | – | 88 | – | –
COCCOc1cc2[nH]nc(-c3cc(-c4ccc(N5CCS(=O)(=O)CC5)cc4)no3)c2cc1F [A122, 4-(4-{5-[5-fluoro-6-(2-methoxyethoxy)-1H-indazol-3-yl]-1,2-oxazol-3-yl}phenyl)-1lambda6-thiomorpholine-1,1-dione] | – | 54 | – | –
COCCOc1cc2[nH]nc(-c3cn(-c4ccc(C(=O)N5CCOCC5)cc4)nn3)c2cc1F [reference compound] | – | – | 490 | –
COCCOc1cc2[nH]nc(-c3cc(-c4ncc(C(=O)N5CC(N6CCOCC6)C5)s4)no3)c2cc1F [A83, 5-fluoro-6-(2-methoxyethoxy)-3-(3-{5-[3-(morpholin-4-yl)azetidine-1-carbonyl]-1,3-thiazol-2-yl}-1,2-oxazol-5-yl)-1H-indazole] | – | 76 | – | –
COC(=O)c1ccc2c(-c3cc(-c4ccc(C(=O)N(C)C)cc4)no3)n[nH]c2c1 [A19, methyl 3-{3-[4-(dimethylcarbamoyl)phenyl]-1,2-oxazol-5-yl}-1H-indazole-6-carboxylate] | – | 8.2 | – | –

— patent publication US20260042753A1 (Merck Patent GmbH, priority 2019, published 2026)
